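These data come from cells grown in 96-well plates and exposed to compound for 48 hours at five concentrations. The concentration for 50% growth inhibition is given as GI50. TGI marks complete inhibition of growth.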

The values that follow come from PubChem BioAssay (NCI).

Some test systems named below: SNB-19 CNS; BT-549 breast; K-562 leukemia; NCI-H522 lung; SR leukemia; NCI/ADR-RES ovarian; UO-31 renal; EKVX NSCLC; MCF7 breast; MOLT-4 leukemia.
Holding throughout (test): DTP human tumour cell line panel, 48 h

As for `C[C@]12CC[C@@H]3c4ccc(O)cc4C(O)C[C@H]3[C@@H]1CCC2=O` (stereo partly drawn), the GI50 in the assay on SNB-19 CNS was more than 100 µM; in the assay with BT-549 breast, more than 100 µM; in the assay on K-562 leukemia, more than 100 µM; with NCI-H522 lung, 60.8 µM; in the assay on SR leukemia, more than 100000 nM; in the assay with NCI/ADR-RES ovarian, more than 100 µM. The GI50 in the assay on UO-31 renal is 53.8 µM; in the assay on EKVX NSCLC, 48.8 µM; in the assay with MCF7 breast it was more than 100 µM; with MOLT-4 leukemia it was more than 100 µM. The total growth inhibition concentration (TGI) in the assay with SNB-19 CNS, in the assay on BT-549 breast, with K-562 leukemia, in the assay with NCI-H522 lung, in the assay on SR leukemia and with NCI/ADR-RES ovarian was more than 100 µM in each case. In addition, the total growth inhibition concentration (TGI) in the assay with UO-31 renal, in the assay with EKVX NSCLC, with MCF7 breast and in the assay with MOLT-4 leukemia was more than 100 µM in each case.
Consider `COc1ccccc1Nc1nc(NNC(=O)Cc2ccccc2)nc(NNC(=O)c2ccncc2)n1`, for which the TGI with BT-549 breast, with K-562 leukemia, in the assay on SR leukemia, with NCI/ADR-RES ovarian, in the assay on EKVX NSCLC and with MCF7 breast was more than 10 µM in each case. The same molecule yielded a TGI in the assay with MOLT-4 leukemia of more than 10 µM.
`Cc1ccc(SC(=O)N2C(=S)NC(=NC3CCCCC3)C23CCCCC3)cc1`: the total growth inhibition concentration (TGI) with SNB-19 CNS, in the assay with BT-549 breast, in the assay on K-562 leukemia, in the assay on NCI-H522 lung, in the assay on SR leukemia and with NCI/ADR-RES ovarian was more than 100 µM throughout. Also, the TGI in the assay with UO-31 renal, with EKVX NSCLC and in the assay on MCF7 breast was more than 100 µM in each case.
For the molecule `O=C1NC2(CN3CCC2CC3)C(=O)N1CN(Cc1ccccc1)c1ccccc1` (stereo not drawn), the TGI is more than 100 µM in the assay on SNB-19 CNS; more than 100 µM in the assay with BT-549 breast; more than 100 µM in the assay on NCI-H522 lung; 63.2 µM in the assay on SR leukemia; more than 100 µM in the assay with NCI/ADR-RES ovarian; more than 100 µM with UO-31 renal. Moreover, the TGI in the assay with EKVX NSCLC, in the assay on MCF7 breast and in the assay on MOLT-4 leukemia was more than 100 µM throughout.
As to `Cc1cc(N/N=C/c2nc(-c3ccc(Cl)cc3)oc2C)c2cc(Cl)ccc2n1`, the GI50 was 3.95 µM in the assay on SNB-19 CNS; 8.61 µM in the assay with BT-549 breast; 0.571 µM in the assay with K-562 leukemia; 1.89 µM in the assay on NCI-H522 lung; 344 nM in the assay on SR leukemia; 2.19 µM with NCI/ADR-RES ovarian. For the same molecule, the GI50 was 12.6 µM in the assay on UO-31 renal, 14.6 µM in the assay on EKVX NSCLC, 1.35 µM with MCF7 breast and 2.34 µM in the assay on MOLT-4 leukemia. Besides, the TGI worked out at 16.1 µM in the assay on SNB-19 CNS; 21.1 µM in the assay with BT-549 breast; 2.56 µM in the assay on K-562 leukemia; 4.27 µM with NCI-H522 lung; 4.84 µM in the assay with SR leukemia; 5.63 µM in the assay with NCI/ADR-RES ovarian. Further, the TGI in the assay with UO-31 renal is 25.2 µM; in the assay with EKVX NSCLC, 28.3 µM; in the assay on MCF7 breast, 2.97 µM; in the assay with MOLT-4 leukemia, 9.11 µM.
For the molecule `CCOc1c(Cl)cc(CNC(C)C(O)c2ccccc2)cc1OC` (stereo not drawn), the GI50 in the assay with SNB-19 CNS was 32.7 µM; in the assay on BT-549 breast, 41.1 µM; in the assay on K-562 leukemia, 20.9 µM; in the assay on NCI-H522 lung, 20.7 µM; in the assay on SR leukemia, 17100 nM; in the assay on NCI/ADR-RES ovarian, 20.2 µM. Besides, the GI50 with UO-31 renal was 18 µM; in the assay on MCF7 breast, 17.8 µM; in the assay with MOLT-4 leukemia it was 26 µM. For the same molecule, the total growth inhibition concentration (TGI) in the assay on SNB-19 CNS is more than 100 µM; with BT-549 breast it was more than 100 µM; with K-562 leukemia it was 68.9 µM; in the assay on NCI-H522 lung, 43.3 µM; in the assay on SR leukemia, 52.5 µM; in the assay on NCI/ADR-RES ovarian it was 59.1 µM. The TGI worked out at 89.6 µM with UO-31 renal, 45.2 µM with MCF7 breast and 85.7 µM in the assay with MOLT-4 leukemia.
In the case of `Cc1c2ccc(N(C)c3ccnc(Nc4cccc(S(N)(=O)=O)c4)n3)cc2nn1C`, the GI50 with SNB-19 CNS was more than 22.9 µM; in the assay with BT-549 breast, 9.48 µM; in the assay on K-562 leukemia, 5.54 µM; in the assay with NCI-H522 lung, 6.09 µM; in the assay on NCI/ADR-RES ovarian, more than 19.7 µM; in the assay on UO-31 renal, 5.96 µM. In addition, the GI50 with EKVX NSCLC was 11.8 µM; in the assay with MCF7 breast it was 8.95 µM; in the assay with MOLT-4 leukemia, 8.81 µM. The TGI in the assay on SNB-19 CNS is more than 25 µM; in the assay on BT-549 breast, more than 25 µM; with K-562 leukemia, more than 25 µM; in the assay on NCI-H522 lung, 23.7 µM; with NCI/ADR-RES ovarian, more than 25 µM; in the assay with UO-31 renal, more than 23.1 µM. Also, the TGI is more than 25 µM with EKVX NSCLC, more than 25 µM in the assay with MCF7 breast and more than 23.6 µM with MOLT-4 leukemia.
Consider `COc1cc(Cn2c(-c3nonc3N)nc3ccccc32)ccc1C`, for which the GI50 in the assay on SNB-19 CNS is 0.626 µM; in the assay on BT-549 breast, 0.463 µM; in the assay on K-562 leukemia, 0.375 µM; in the assay on NCI-H522 lung, 0.243 µM; with SR leukemia, 516 nM; in the assay on NCI/ADR-RES ovarian, 0.362 µM. Also, the figures for the GI50 in the assay on UO-31 renal, in the assay on MCF7 breast and in the assay with MOLT-4 leukemia were 0.58 µM, 0.348 µM and 0.692 µM, respectively. Also, the TGI in the assay on SNB-19 CNS was 45.5 µM; with BT-549 breast it was 49.4 µM; with K-562 leukemia, more than 100 µM; in the assay with NCI-H522 lung, 0.735 µM; with SR leukemia, more than 100 µM; in the assay with NCI/ADR-RES ovarian it was more than 37.4 µM. The total growth inhibition concentration (TGI) with UO-31 renal, in the assay on MCF7 breast and in the assay on MOLT-4 leukemia was more than 100 µM in each case.
Take `c1nnc(NCNc2nncs2)s1`: the concentration for total growth inhibition (TGI) with SNB-19 CNS, in the assay on BT-549 breast, in the assay with K-562 leukemia, in the assay on NCI-H522 lung, in the assay with SR leukemia and in the assay with NCI/ADR-RES ovarian was more than 100 µM each time. Moreover, the TGI in the assay with UO-31 renal, in the assay on EKVX NSCLC, with MCF7 breast and with MOLT-4 leukemia was more than 100 µM each time.
For `OCC1OC(n2cnc3c(/C=C(/O)c4ccccc4)ncnc32)C(O)C1O` (stereo not drawn), the TGI with SNB-19 CNS is more than 100 µM; in the assay with BT-549 breast, more than 100 µM; in the assay on K-562 leukemia, more than 100 µM; with NCI-H522 lung it was 43.1 µM; with SR leukemia it was more than 100 µM; in the assay on NCI/ADR-RES ovarian, more than 92 µM. Besides, the TGI is more than 35.7 µM in the assay with UO-31 renal, more than 100 µM in the assay with EKVX NSCLC, more than 100 µM in the assay with MCF7 breast and more than 100 µM in the assay on MOLT-4 leukemia.
For `Cc1ccc(S(=O)(=O)N=Nc2c(O)[nH]c3c(Cl)cc(Cl)cc23)cc1`, the TGI in the assay with SNB-19 CNS, in the assay with BT-549 breast, in the assay on K-562 leukemia, in the assay with SR leukemia, in the assay with NCI/ADR-RES ovarian and in the assay with UO-31 renal was more than 100 µM each time. Also, the total growth inhibition concentration (TGI) with EKVX NSCLC, in the assay on MCF7 breast and with MOLT-4 leukemia was more than 100 µM throughout.

The term GI50 denotes the concentration that inhibits growth by half. For orientation: TGI means the concentration giving total growth inhibition. Low values mean greater sensitivity of the cells, high ones lower sensitivity of the cells.
